The conditions of data set [1]: single intravenous administration; major depression and bipolar disorder; cited from earlier work.
The conditions of data set [2]: in vivo; cited from earlier work.
The conditions of data set [3]: in vivo; cited from earlier work. The source holds these as a separate data set.
Data set [4] deals with T1, NMDA receptor composed of four subunits consisting of two sets of heterodimers of NR1 and NR2B (human GRIN1 and GRIN2B-expressing HEK293 cells) (Homo sapiens, UniProt Q13224).
T1 construct: host or cells: HEK293 (tetracycline-inducible expression)
Description: NR2B Ca2+ influx assay. The format is cell-based. Conditions: 10 μM compound, glutamic acid/glycine-induced Ca2+ influx, FLIPR, read-out: inhibitory rate (10 μM compound concentration). The gist of the method: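 HEK293 cells expressing human GRIN1/GRIN2B were induced with tetracycline (diluted to 2 µg/mL) for 2 h, then Fluo-4AM loaded (2.5 µM) in pH 7.2 buffer with 1.8 mM CaCl2. Compound at 10 µM final was preincubated 15 min at room temperature, then challenged with buffer containing 30 µM glutamate/30 µM glycine. FLIPR fluorescence was read every 3 s for 5 min, with % inhibition from cumulative signal and agonist-free wells set as 100%.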

The target in the next data set is T2, hERG channel (Homo sapiens, UniProt Q12809).
T2 construct: Medicine
Kind of data set: hERG manual patch-clamp assay. To be noted: 10 μmol/L test solution; hERG peak tail current 3 to 5 min after application, HEK293 cells. Format: cell-based. The procedure:
hERG Manual Patch-Clamp Assay
In order to confirm “hERG channel inhibitory activity” which the compound of the present invention has, the hERG channel inhibitory activity was evaluated using human Ether-a-go-go-Related Gene (hERG)-expressing human embryonic kidney 293 (HEK293) cells.
hERG-stably expressing HEK293 cells were purchased from University of Wisconsin-Madison Dept. Medicine. The cells were cultured in a medium prepared by adding 10% FBS (fetal bovine serum, Life Technologies Corporation), sodium pyruvate (1 mmol/L; Life Technologies Corporation), MEM Non-Essential Amino Acid (1×; Life Technologies Corporation), 100 units/mL penicillin, 100 μg/mL streptomycin (Life Technologies Corporation) and 400 μg/mL G 418 (Geneticin, Sigma-Aldrich Co. LLC.) to Minimum Essential Medium (Sigma-Aldrich Co. LLC.) at 37° C., 5% CO2. The cultured cells were detached, suspended in a medium, and seeded on a cover glass, cultured, and used in a patch-clamp assay. […]
The hERG current passing through whole cell membranes under voltage-clamp was recorded by whole-cell patch-clamp method. […] During measurement, the extracellular fluid temperature in the chamber was set at 20 to 25° C., and the hERG current was measured using patch-clamp amplifier (Axopatch-200B, Molecular Devices, LLC). The obtained electrical signal was recorded on a computer via patch-clamp record and analysis software (pCLAMP 10, Molecular Devices, LLC). The absolute value of the hERG current value (peak tail current) was calculated based on the current value when depolarizing pulse at −50 mV, 110 msec was given, and the change (inhibitory rate) in the hERG current value (peak tail current) 3 to 5 min after the application of the 10 μmol/L test solution relative to before the application was calculated.
In general terms: Block of hERG is tested as a sign of cardiac risk.

The test system of data set [5] is NMDA receptor containing the NR2B subunit (hippocampus). Kind of data set: [3H]MK-801 binding test in vivo. Also on record: species or system Sprague Dawley rats. To be noted: [3H]MK-801 binding inhibitory rate, rat hippocampus. Here is the method: [^3H]MK-801 Binding Test In Vivo
In order to confirm “functional antagonistic action on an NMDA receptor containing the NR2B subunit in vivo” which the compound of the present invention has, binding test was performed using tritium-labeled form of MK-801 ((5R,10S)-5-methyl-10,11-dihydro-5H-5,10-epiminodibenzo[a,d][7]annulene) ([^3H]MK-801), which is a compound capable of binding to the opening site of the NMDA receptor.
The example compound (3 mg/kg/2 mL, 0.5% MC water) or vehicle ([…], 0.5% MC water) was orally administered (p.o.) to Sprague Dawley rats (body weight 180-260 g). After a certain time (around after time-to maximum blood concentration), [^3H]MK-801 (20 μCi/kg/mL, Muromachi Kikai) was intravenously administered. After 10 min, the rats were euthanized by decapitation, and subjected to craniotomy, and the hippocampus was collected. The collected hippocampus was homogenized in 30 volumes (30 mL per 1 g tissue) ice-cooled 20 mM Hepes (pH7.5, Hampton Research) using a homogenizer (T10 basic Ultra-Turrax) for 10 sec. […] The filter was washed four times with ice-cooled saline (5 mL, Otsuka Pharmaceutical), put into a scintillation vial, and then 10 mL of liquid scintillator A (FUJIFILM Wako Pure Chemical Corporation) was added thereto, and the residual radioactivity was counted using liquid scintillation counter (ALOKA LSC-6100). Separately, the residual radioactivity in 100 μL of the homogenate before the filtration was counted in the same way. The value of [the residual radioactivity in the filter/the residual radioactivity in the 100 μL of the homogenate] was calculated as a [^3H]MK-801 binding rate to the NMDA receptor expressing in each individual hippocampus tissue. […] The difference between the percentage of [^3H]MK-801 binding rate in the group orally administered with the example compound and that in the vehicle control group (100%) was analyzed as [^3H]MK-801 binding inhibitory rate by the example compound.

The conditions of data set [6]: continuous intravenous administration; cited from earlier work.
The conditions of data set [7]: rodents; number of occurrence and depth; cited from earlier work.

T1 sequence (Q13224 27-1484, other chains not shown): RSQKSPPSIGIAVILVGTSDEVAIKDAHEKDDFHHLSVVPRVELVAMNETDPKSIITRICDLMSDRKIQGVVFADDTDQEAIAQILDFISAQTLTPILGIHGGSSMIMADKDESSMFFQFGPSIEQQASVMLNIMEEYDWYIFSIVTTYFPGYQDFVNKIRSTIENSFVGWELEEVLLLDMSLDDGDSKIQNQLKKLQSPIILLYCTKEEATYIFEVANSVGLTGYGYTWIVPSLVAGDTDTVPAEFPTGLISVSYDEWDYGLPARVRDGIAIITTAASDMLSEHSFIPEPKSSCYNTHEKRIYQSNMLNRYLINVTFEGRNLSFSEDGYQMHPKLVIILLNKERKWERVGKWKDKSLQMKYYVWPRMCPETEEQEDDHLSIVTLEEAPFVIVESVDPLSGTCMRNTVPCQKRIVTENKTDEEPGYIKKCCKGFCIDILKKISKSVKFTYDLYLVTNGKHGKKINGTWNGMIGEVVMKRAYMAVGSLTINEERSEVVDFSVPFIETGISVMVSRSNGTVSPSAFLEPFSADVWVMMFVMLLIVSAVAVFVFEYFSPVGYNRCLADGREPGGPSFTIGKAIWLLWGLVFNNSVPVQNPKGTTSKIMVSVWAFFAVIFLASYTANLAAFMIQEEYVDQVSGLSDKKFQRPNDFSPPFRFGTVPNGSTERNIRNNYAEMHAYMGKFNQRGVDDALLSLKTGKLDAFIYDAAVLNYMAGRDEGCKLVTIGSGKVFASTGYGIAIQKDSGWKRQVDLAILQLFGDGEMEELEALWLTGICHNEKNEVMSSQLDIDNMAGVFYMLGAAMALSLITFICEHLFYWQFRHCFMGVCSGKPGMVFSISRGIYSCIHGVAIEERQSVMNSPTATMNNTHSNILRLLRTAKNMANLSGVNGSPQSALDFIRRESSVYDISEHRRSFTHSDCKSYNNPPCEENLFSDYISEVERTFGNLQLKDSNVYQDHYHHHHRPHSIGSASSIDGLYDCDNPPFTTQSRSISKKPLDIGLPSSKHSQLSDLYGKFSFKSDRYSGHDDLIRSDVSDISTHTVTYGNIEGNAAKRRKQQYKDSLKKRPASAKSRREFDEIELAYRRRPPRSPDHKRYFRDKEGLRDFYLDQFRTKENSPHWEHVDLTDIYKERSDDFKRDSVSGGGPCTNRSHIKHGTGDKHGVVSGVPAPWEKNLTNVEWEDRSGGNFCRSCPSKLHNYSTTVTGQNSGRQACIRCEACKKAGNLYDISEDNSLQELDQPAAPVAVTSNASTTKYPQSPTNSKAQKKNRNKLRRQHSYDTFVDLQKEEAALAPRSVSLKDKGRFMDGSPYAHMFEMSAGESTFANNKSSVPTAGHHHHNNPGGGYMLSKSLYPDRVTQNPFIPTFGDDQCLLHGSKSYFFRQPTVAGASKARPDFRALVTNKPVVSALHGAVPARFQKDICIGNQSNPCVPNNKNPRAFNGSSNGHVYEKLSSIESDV
T2 sequence (Q12809 whole entry): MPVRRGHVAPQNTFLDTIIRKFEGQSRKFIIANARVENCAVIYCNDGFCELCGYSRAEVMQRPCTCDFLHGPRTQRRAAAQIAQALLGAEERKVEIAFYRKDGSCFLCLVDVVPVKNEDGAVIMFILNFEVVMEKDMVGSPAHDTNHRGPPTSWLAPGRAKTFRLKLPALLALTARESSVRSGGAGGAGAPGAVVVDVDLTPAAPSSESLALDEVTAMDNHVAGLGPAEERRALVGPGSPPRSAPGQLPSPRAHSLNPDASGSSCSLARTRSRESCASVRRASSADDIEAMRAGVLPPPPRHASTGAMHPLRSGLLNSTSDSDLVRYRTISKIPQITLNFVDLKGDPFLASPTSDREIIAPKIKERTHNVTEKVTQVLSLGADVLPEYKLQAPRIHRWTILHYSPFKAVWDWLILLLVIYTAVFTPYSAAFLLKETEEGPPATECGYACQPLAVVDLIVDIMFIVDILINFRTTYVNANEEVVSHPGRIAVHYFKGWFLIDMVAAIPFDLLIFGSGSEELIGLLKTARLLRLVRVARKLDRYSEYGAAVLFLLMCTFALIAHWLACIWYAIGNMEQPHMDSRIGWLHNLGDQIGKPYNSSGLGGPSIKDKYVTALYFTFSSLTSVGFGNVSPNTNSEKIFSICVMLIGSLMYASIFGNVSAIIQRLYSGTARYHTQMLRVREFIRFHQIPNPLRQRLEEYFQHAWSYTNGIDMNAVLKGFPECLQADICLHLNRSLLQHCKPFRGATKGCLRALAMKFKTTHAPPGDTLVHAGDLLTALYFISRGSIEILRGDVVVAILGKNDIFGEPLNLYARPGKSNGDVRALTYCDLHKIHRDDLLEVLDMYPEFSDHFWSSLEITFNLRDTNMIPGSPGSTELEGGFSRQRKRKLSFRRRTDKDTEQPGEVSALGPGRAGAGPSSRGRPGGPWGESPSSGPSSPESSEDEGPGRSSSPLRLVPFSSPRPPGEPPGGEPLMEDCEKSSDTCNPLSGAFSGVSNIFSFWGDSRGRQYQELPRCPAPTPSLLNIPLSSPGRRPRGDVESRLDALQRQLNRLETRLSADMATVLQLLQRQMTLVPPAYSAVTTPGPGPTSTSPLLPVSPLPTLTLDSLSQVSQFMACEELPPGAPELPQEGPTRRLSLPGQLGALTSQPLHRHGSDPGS

On to `CNC1(c2ccccc2Cl)CCCCC1=O` (stereo not drawn) [ketamine], for which the “effect on depression symptom” value in data set [1] was “improves depression symptom accompanying major depression and bipolar disorder rapidly and in a sustained manner”. Turning to `CC12CC3CC(C)(C1)CC(N)(C3)C2` [memantine], the “effect on behavioral and psychological symptoms of dementia” value in data set [2] was “partially improves behavioral and psychological symptoms of dementia”. For `CC(C(O)c1ccc(O)cc1)N1CCC(Cc2ccccc2)CC1` (stereo not drawn) [ifenprodil], the “effect on pain threshold” value in data set [3] is given as “increase in pain threshold”. `O=C(NCc1cnn2ncccc12)c1cnc(OC(F)F)c(F)c1` [Example 6, 6-(difluoromethoxy)-5-fluoro-N-(pyrazolo[1,5-b]pyridazin-3-ylmethyl)nicotinamide]: the inhibition at 10 µM in data set [4] came to 97%. Also, the “inhibitory rate (10 μM compound concentration)” value against hERG channel is given as 16.5. Moreover, the “inhibitory rate (3 mg/kg, p.o.)” value in data set [5] is listed as 33%. With `Cn1ccn2ncc(CNC(=O)c3cnc(OC(F)F)c(F)c3)c12` [Example 58, 6-(difluoromethoxy)-5-fluoro-N-((1-methyl-1H-imidazo[1,2-b]pyrazol-7-yl)methyl)nicotinamide], in data set [4], the inhibition at 10 µM came to 97%. The “inhibitory rate (10 μM compound concentration)” value against hERG channel is 13.6. The “inhibitory rate (3 mg/kg, p.o.)” value in data set [5] was 27%. For `C[C@@H]([C@@H](O)c1ccc(O)cc1)N1CCC(O)(c2ccccc2)CC1` [CP-101,606], the “effect on treatment resistant-depression symptom” value in data set [6] is listed as “significantly improves treatment resistant-depression symptom”. In data set [7], the “effect on cortical spreading depression” value was “suppress the number of occurrence and the depth of cortical spreading depression”. With `O=C(NCc1nnn2ccccc12)c1ccc(OC(F)(F)F)c(F)c1` [Example 13, 3-fluoro-N-([1,2,3]triazolo[1,5-a]pyridin-3-ylmethyl)-4-(trifluoromethoxy)benzamide], the inhibition at 10 µM in data set [4] was found to be 96%. In addition, the “inhibitory rate (10 μM compound concentration)” value on hERG channel turned out to be 33.2. Further, in data set [5], the “inhibitory rate (3 mg/kg, p.o.)” value worked out at 23%. As for `C[C@@H](CN1CCC(Cc2ccccc2)CC1)[C@@H](O)c1ccc(O)cc1` [Ro25-6981], the “effect on cortical spreading depression” value in data set [7] was “suppress the number of occurrence and the depth of cortical spreading depression”.

The record behind these values is patent US11702419B2, “Heterocyclic compound and use thereof” (Takeda Pharmaceutical Company Limited, priority 2018, dated 2023).
